Results taken from patent EP0559700B1, “NOVEL PILOCARPINE DERIVATIVES AND PROCESS FOR THEIR PREPARATION” (Santen Oy, priority 1990, dated 1992).
Like-named read-outs stand apart in the source and are kept apart here.

Columns and labels:
[1] = Corneal permeability in a diffusion chamber; assay type: in vitro ADME, rabbit
From the text: The corneal permeability of pilocarpine hydrochloride and its most promising prodrug derivatives as evaluated from the tests described above were studied in a diffusion chamber, wherein the migration of the compound from the delivering phase (epithelium side) thorugh the cornea to the acceptor side (endothelium side) of the diffusion chamber. In the study, rabbit eye cornea was used. From the samples taken from the acceptor side of the diffusion chamber, both the concentration of the prodrug and the liberated drug were determined in the acceptor phase with HPLC. Thus the rate of degradation of the prodrug in the cornea was determined. The permeability coefficients (Papp, cm/s) calculated from the permeability rate (μmol/min), their […] deviations (RSD) and the number of tests, are given in the Table II below.

[2] = Enzyme hydrolysis in plasma/buffer pH 7.4 mixture (80%-20%); assay type: in vitro ADME; conditions: for half-life: 80% plasma/buffer
Description: The half-times of enzyme hydrolysis of the novel bispilocarpates according to the invention and of known pilocarpic acid diesters were determined in a plasma/buffer pH 7.4-mixture (80%-20%) at 37°C. The degradation constants (k) for the compounds tested and determined from the plot showing the logarithm of remaining diester as a function of time and the half-lives T½ are shown in the Table II below. From the results it may be seen that in […] the stable test compound degrades under the influence of an enzyme (esterase) to a O,O'-dihydrogen bispilocarpate intermediate, which spontaneously degrades at pH 7.40 to pilocarpine. Consequently the effect of the bispilocarpate intermediate on the rate of formation of pilocarpine is very significant. The formation of pilocarpine was almost complete irrespective of the epimerization possibility of the intermediate. The amount of isopilocarpine formed varied from 0 to 10%, as also the pilocarpine formed epimerized, if the duration of hydrolysis was very long.

[3] = Lipophilicity: partition coefficient (octanol-buffer) and capacity factor by RP-HPLC; assay type: physicochemical; conditions: for Capacity factor (22°C) k' / chromatographic logP: rp-hplc; for chromatographic logP: reverse phase HPLC, 22°C, read-out: Capacity factor (22°C) k' (converted)
From the text: The lipophilicity of the compounds were studied by determining the partition coefficients (P) of the compounds at a pH of 7.40. The measurements were made either in an octanol-buffer mixture by determining the concentration of the compound to be studied in the buffer phase by HPLC. The partition coefficients of the very lipophilic compounds were, however, determined by reverse phase (RP) liquid chromatography (HPLC) from the retention time (Beckmann 116 pump and 166 UV detector; Marathon autom. sample feeder). […] From the results it can be seen that the compounds of the invention are considerably more lipophilic than the pilocarpine.

[4] = pKa-value determination by titration in a water-ethanol mixture (50%-50%); assay type: physicochemical; conditions: water-ethanol 50:50; titration in water-ethanol mixture (50%-50%)
[5] = Stability of the compounds: buffer hydrolysis (half-times, shelf-life); assay type: physicochemical
Description: The stability of the test compounds were tested with buffer hydrolyses. The ionic strength (µ) of the buffers was 0.5, the pH-values used 4.2, 6.0, 7.4 and 9.0 and the temperatures used 37°C, 50 °C, 60 °C and 70 °C.
The half-times T½ calculated on basis of the degradation constant k obtained for each studied compound (T½=0.693/k; k = 2.303 x kk, wherein kk is the angular coefficient of the plot which illustrates the logarithm of the remaining ester as a function of time) in a buffer solution of said pH, are indicated in the Table I below, which values refer to half-times at 37°C.
The storage stability of the derivatives under different storage conditions may be estimated by determining the degradation constants at different temperatures and calculating the degradation constant k at the desired temperature from the equation of the plot corresponding to the Arrhenius equation (1), wherein log k is given as a function of [1/T]. Log k = Log A -(Ea)/(2.303R)x(1)/(T) [formula]
From the degradation constant (k) obtained at the desired temperature the shelf-life-time t10% (t10% = 0.104/k) which indicates the time during which 10% of the drug has degraded may be calculated. By way of example it may be mentioned that the t10%-time of O,O'-dipropionyl (1,4-xylylene) bispilocarpate at 4 °C is almost 500 days.

[6] = rabbit eye cornea, diffusion chamber, epithelium side to endothelium side, read-out: Permeability coefficient Papp
[7] = plasma/buffer pH 7.4 (80%-20%), 37°C, read-out: half-times (T½) in plasma (80%), 37°C
[8] = plasma/buffer pH 7.4 (80%-20%), 37°C
[9] = buffer pH 6.00, ionic strength 0.5, 37°C, read-out: Half-times in buffers at 37°C, T½, pH 6.00 (converted)
[10] = buffer pH 9.00, ionic strength 0.5, 37°C, read-out: Half-times in buffers at 37°C, T½, pH 9.00 (converted)
[11] = pH 4.2, buffer pH 4.20, ionic strength 0.5, 37°C, read-out: Half-times in buffers at 37°C, T½, pH 4.20 (converted)
[12] = pH 7.4, buffer pH 7.40, ionic strength 0.5, 37°C, read-out: Half-times in buffers at 37°C, T½, pH 7.40 (converted)
[13] = determined from the equation log k'= 0.182 Log P - 0.4086 (RP-HPLC retention)

| Papp [1, 6] [×10⁻⁶ cm/s] | half-life [2, 7] [days] | Degradation coefficient (k) in plasma (80%), 37°C [2, 8] [min⁻¹] | Papp ([1]; rabbit) [×10⁻⁶ cm/s] | Partition coefficient log P ([3]; pH 7.4) | Capacity factor (22°C) k' [3] | chromatographic logP [3] | pKa [4] | half-life ([5]; buffer, pH 4.2) [days] | half-life ([5]; buffer, pH 6) [days] | half-life ([5]; buffer, pH 7.4) [days] | half-life ([5]; buffer, pH 9) [days] | half-life ([2]; pH 7.4) [days] | Degradation coefficient (k) in plasma (80%), 37°C ([2]; pH 7.4) [min⁻¹] | shelf-life-time t10% (time during which 10% of the drug has degraded) ([5]; at 4 °C, calculated from the Arrhenius plot) [days] | half-life [5, 9] [days] | half-life [5, 10] [days] | half-life [5, 11] [days] | half-life [5, 12] [days] | Partition coefficient log P [3, 13] | Structure (SMILES) |
| --- | --- | --- | --- | --- | --- | --- | --- | --- | --- | --- | --- | --- | --- | --- | --- | --- | --- | --- | --- | --- |
| 7.2 | 0.0153 | 0.03132 |  |  |  |  |  |  |  |  |  |  |  |  |  |  |  |  |  | CC[C@H](C(=O)OCc1ccccc1)[C@H](COC(=O)c1cccc(Cl)c1)Cc1cncn1C [3-chloro-benzoyl, benzyl, reference compound] |
|  |  |  | 9.3 | 3.0432^1 | 1.3987 | 0.146 | 6.03 | 165 | 48.4 | 11.4 | 1.42 | 0.00625 | 0.0737 |  |  |  |  |  |  | CC[C@H](C(=O)OCc1ccc(COC(=O)[C@@H](CC)[C@H](COC(C)=O)Cc2cncn2C)cc1)[C@H](COC(C)=O)Cc1cncn1C [Example 9, O,O'-Diacetyl (1,4-xylylene) bispilocarpate] |
| 30.5 | 0.00417 | 0.1184 |  |  |  | 0.362 | 5.8 |  |  |  |  |  |  | ~500 | 50.6 | 1.96 | 91.8 | 16.7 |  | CCC(=O)OC[C@H](Cc1cncn1C)[C@H](CC)C(=O)OCc1ccc(COC(=O)[C@@H](CC)[C@H](COC(=O)CC)Cc2cncn2C)cc1 [Example 10, O,O'-Dipropionyl (1,4-xylylene) bispilocarpate] |
| 21.5 | 0.00764 | 0.06149 |  |  |  | 0.603 | 6 |  |  |  |  |  |  |  | 46.4 | 5.71 | 250 | 7.38 | 5.5604^2 | CCCC(=O)OC[C@H](Cc1cncn1C)[C@H](CC)C(=O)OCc1ccc(COC(=O)[C@@H](CC)[C@H](COC(=O)CCC)Cc2cncn2C)cc1 [Example 11, O,O'-Dibutyryl (1,4-xylylene) bispilocarpate] |
| 18.2 | 0.00833 | 0.05734 |  |  |  | 0.868 | 6 |  |  |  |  |  |  |  |  | 0.292 |  |  | 7.0165^2 | CCCCC(=O)OC[C@H](Cc1cncn1C)[C@H](CC)C(=O)OCc1ccc(COC(=O)[C@@H](CC)[C@H](COC(=O)CCCC)Cc2cncn2C)cc1 [Example 12, O,O'-Divaleryl (1,4-xylylene) bispilocarpate] |
|  |  |  |  | 5.8242^2 | 4.4810 | 0.651 | 6 | 131 | 68.6 | 27.3 | 2.92 | 0.0194 | 0.02487 |  |  |  |  |  |  | CC[C@H](C(=O)OCc1ccccc1)[C@H](COC(=O)CCCCC(=O)OC[C@H](Cc1cncn1C)[C@H](CC)C(=O)OCc1ccccc1)Cc1cncn1C [Example 15, O,O'-Adipoyl (dibenzyl) bispilocarpate] |
|  |  |  |  |  |  | 0.576 | 6 |  |  |  |  | 0.00972 | 0.05044 |  | 91.6 | 1.79 | 174 | 31.5 | 5.4093^2 | CC[C@H](C(=O)OCc1ccccc1)[C@H](COC(=O)CCCC(=O)OC[C@H](Cc1cncn1C)[C@H](CC)C(=O)OCc1ccccc1)Cc1cncn1C [Example 16, O,O'-Glutaryl (dibenzyl) bispilocarpate] |
|  |  |  |  | 5.2038^2 | 3.4557 | 0.539 | 6 | 198 | 106 | 10.5 | 1.17 | 0.131 | 0.00368 |  |  |  |  |  |  | CC[C@H](C(=O)OCc1ccccc1)[C@H](COC(=O)CCC(=O)OC[C@H](Cc1cncn1C)[C@H](CC)C(=O)OCc1ccccc1)Cc1cncn1C [Example 17, O,O'-Succinyl (dibenzyl) bispilocarpate] |
|  |  |  |  | 5.7137^2 | 4.2785 | 0.631 | 6.05 | 34.8 | 2.04 | 0.25 | 0.0167 | 0.116 | 0.00415 |  |  |  |  |  |  | CC[C@H](C(=O)OCc1ccccc1)[C@H](COC(=O)/C=C/C(=O)OC[C@H](Cc1cncn1C)[C@H](CC)C(=O)OCc1ccccc1)Cc1cncn1C [Example 18, O,O'-Fumaroyl (dibenzyl) bispilocarpate] |
|  |  |  |  |  |  | 0.865 | 6 |  |  |  |  | 0.149 | 0.00322 |  | 38 | 1.58 | 65.9 | 2.29 | 7.0000^2 | CC[C@H](C(=O)OCc1ccccc1)[C@H](COC(=O)c1ccc(C(=O)OC[C@H](Cc2cncn2C)[C@H](CC)C(=O)OCc2ccccc2)cc1)Cc1cncn1C [Example 19, O,O'-Terephtaloyl (dibenzyl) bispilocarpate] |
| 11.7 | 0.0111 | 0.04353 |  |  |  |  |  |  |  |  |  |  |  |  | 144 | 3.29 | 320 | 22.8 |  | CC[C@H](C(=O)OCc1ccccc1)[C@H](COC(C)=O)Cc1cncn1C [acetyl, benzyl, reference compound] |
| 8.7 | 0.0125 | 0.038 |  |  |  |  |  |  |  |  |  |  |  |  | 203 | 4.62 | 444 | 85.1 |  | CC[C@H](C(=O)OCc1ccccc1)[C@H](COC(=O)c1ccccc1)Cc1cncn1C [benzoyl, benzyl, reference compound] |
| 14.3 | 0.00417 | 0.108 |  |  |  |  |  |  |  |  |  |  |  |  | 222 | 3.92 | 90.8 | 31.2 |  | CCC(=O)OC[C@H](Cc1cncn1C)[C@H](CC)C(=O)OCc1ccccc1 [propionyl, benzyl, reference compound] |
| 11.5 | 0.00625 | 0.07876 |  |  |  |  |  |  |  |  |  |  |  |  |  | 12.6 | 356 | 48.7 |  | CCCCC(=O)OC[C@H](Cc1cncn1C)[C@H](CC)C(=O)OCc1ccccc1 [valeryl, benzyl, reference compound] |
